{
  "source": "PubChem BioAssay (NCI)",
  "test_in_all_cases": "inhibition of tumour cell growth, NCI panel, 48 h",
  "key": {"[1]": {"test_system": "UACC-257 melanoma"}, "[2]": {"test_system": "A498 renal"}, "[3]": {"test_system": "EKVX NSCLC"}, "[4]": {"test_system": "MOLT-4 leukemia"}, "[5]": {"test_system": "SK-OV-3 ovarian"}, "[6]": {"test_system": "IGROV1 ovarian"}, "[7]": {"test_system": "OVCAR-5 ovarian"}, "[8]": {"test_system": "SK-MEL-28 melanoma"}, "[9]": {"test_system": "HL-60(TB) leukemia"}, "[10]": {"test_system": "KM12 colon"}, "[11]": {"test_system": "M19-MEL melanoma"}, "[12]": {"test_system": "CCRF-CEM leukemia"}, "[13]": {"test_system": "RXF 393 renal"}, "[14]": {"test_system": "NCI-H460 lung"}, "[15]": {"test_system": "U251 CNS"}, "[16]": {"test_system": "HOP-92 NSCLC"}, "[17]": {"test_system": "M14 melanoma"}, "[18]": {"test_system": "SR leukemia"}, "[19]": {"test_system": "SF-268 CNS"}, "[20]": {"test_system": "SNB-19 CNS"}, "[21]": {"test_system": "HT29 colon"}, "[22]": {"test_system": "SF-295 CNS"}, "[23]": {"test_system": "NCI-H522 lung"}, "[24]": {"test_system": "ACHN renal"}, "[25]": {"test_system": "SNB-78 CNS"}, "[26]": {"test_system": "OVCAR-8 ovarian"}, "[27]": {"test_system": "HOP-62 NSCLC"}, "[28]": {"test_system": "A549 NSCLC"}, "[29]": {"test_system": "DMS 273 small cell lung"}, "[30]": {"test_system": "TK-10 renal"}, "[31]": {"test_system": "NCI-H23 lung"}, "[32]": {"test_system": "UO-31 renal"}, "[33]": {"test_system": "SF-539 CNS"}, "[34]": {"test_system": "MALME-3M melanoma"}, "[35]": {"test_system": "CAKI-1 renal"}, "[36]": {"test_system": "K-562 leukemia"}, "[37]": {"test_system": "DLD-1 colon"}, "[38]": {"test_system": "KM20L2 colon"}, "[39]": {"test_system": "SK-MEL-2 melanoma"}, "[40]": {"test_system": "DMS 114 small cell lung"}, "[41]": {"test_system": "LXFL 529 NSCLC"}, "[42]": {"test_system": "786-0 renal"}, "[43]": {"test_system": "SNB-75 CNS"}, "[44]": {"test_system": "HCC-2998 colon"}, "[45]": {"test_system": "OVCAR-4 ovarian"}, "[46]": {"test_system": "OVCAR-3 ovarian"}, "[47]": {"test_system": "SK-MEL-5 melanoma"}, "[48]": {"test_system": "SW-620 colon"}, "[49]": {"test_system": "UACC-62 melanoma"}, "[50]": {"test_system": "LOX IMVI melanoma"}, "[51]": {"test_system": "HCT-116 colon"}, "[52]": {"test_system": "RPMI-8226 leukemia"}, "[53]": {"test_system": "HCT-15 colon"}, "[54]": {"test_system": "COLO 205 colon"}},
  "note": "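Tested at 5 concentrations; 48 h exposure; 96-well plates; endpoints linearly interpolated, else capped at highest concentration. TGI is the concentration that stops growth completely.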",
  "data": [
    {"smiles": "COC1=C(OC)C(O)(c2ccccc2)C1=O", "note": "(configuration not stated)", "values": [
      {"measurement": "TGI", "setting": "[1]", "value": "> 100", "unit": "µM"},
      {"measurement": "TGI", "setting": "[2]", "value": "> 100", "unit": "µM"},
      {"measurement": "TGI", "setting": "[3]", "value": "> 100", "unit": "µM"},
      {"measurement": "TGI", "setting": "[4]", "value": "> 100", "unit": "µM"},
      {"measurement": "TGI", "setting": "[5]", "value": "> 100", "unit": "µM"},
      {"measurement": "TGI", "setting": "[6]", "value": "> 100", "unit": "µM"},
      {"measurement": "TGI", "setting": "[7]", "value": "> 100", "unit": "µM"},
      {"measurement": "TGI", "setting": "[8]", "value": "> 100", "unit": "µM"},
      {"measurement": "TGI", "setting": "[9]", "value": "> 100", "unit": "µM"},
      {"measurement": "TGI", "setting": "[10]", "value": "> 100", "unit": "µM"},
      {"measurement": "TGI", "setting": "[11]", "value": "> 100", "unit": "µM"},
      {"measurement": "TGI", "setting": "[12]", "value": "> 100", "unit": "µM"},
      {"measurement": "TGI", "setting": "[13]", "value": "> 100", "unit": "µM"},
      {"measurement": "TGI", "setting": "[14]", "value": "> 100", "unit": "µM"},
      {"measurement": "TGI", "setting": "[15]", "value": "> 100", "unit": "µM"},
      {"measurement": "TGI", "setting": "[16]", "value": "> 100", "unit": "µM"},
      {"measurement": "TGI", "setting": "[17]", "value": "> 100", "unit": "µM"},
      {"measurement": "TGI", "setting": "[18]", "value": "> 100", "unit": "µM"},
      {"measurement": "TGI", "setting": "[19]", "value": "> 100", "unit": "µM"},
      {"measurement": "TGI", "setting": "[20]", "value": "> 100", "unit": "µM"},
      {"measurement": "TGI", "setting": "[21]", "value": "> 100", "unit": "µM"},
      {"measurement": "TGI", "setting": "[22]", "value": "> 100", "unit": "µM"},
      {"measurement": "TGI", "setting": "[23]", "value": "> 100", "unit": "µM"},
      {"measurement": "TGI", "setting": "[24]", "value": "> 100", "unit": "µM"},
      {"measurement": "TGI", "setting": "[25]", "value": "> 100", "unit": "µM"},
      {"measurement": "TGI", "setting": "[26]", "value": "> 100", "unit": "µM"},
      {"measurement": "TGI", "setting": "[27]", "value": "> 100", "unit": "µM"},
      {"measurement": "TGI", "setting": "[28]", "value": "> 100", "unit": "µM"},
      {"measurement": "TGI", "setting": "[29]", "value": "> 100", "unit": "µM"},
      {"measurement": "TGI", "setting": "[30]", "value": 85.7, "unit": "µM"},
      {"measurement": "TGI", "setting": "[31]", "value": "> 100", "unit": "µM"},
      {"measurement": "TGI", "setting": "[32]", "value": "> 100", "unit": "µM"}
    ]},
    {"smiles": "N#Cc1ccccc1NC(=O)/C(=N\\Nc1ccc([N+](=O)[O-])cc1)C1C(=O)NC(=O)NC1=O", "values": [
      {"measurement": "TGI", "setting": "[33]", "value": "> 100", "unit": "µM"},
      {"measurement": "TGI", "setting": "[34]", "value": "> 100", "unit": "µM"},
      {"measurement": "TGI", "setting": "[35]", "value": "> 100", "unit": "µM"},
      {"measurement": "TGI", "setting": "[1]", "value": "> 100", "unit": "µM"},
      {"measurement": "TGI", "setting": "[2]", "value": "> 100", "unit": "µM"},
      {"measurement": "TGI", "setting": "[3]", "value": "> 100", "unit": "µM"},
      {"measurement": "TGI", "setting": "[4]", "value": "> 100", "unit": "µM"},
      {"measurement": "TGI", "setting": "[36]", "value": "> 100", "unit": "µM"},
      {"measurement": "TGI", "setting": "[5]", "value": "> 100", "unit": "µM"},
      {"measurement": "TGI", "setting": "[37]", "value": "> 100", "unit": "µM"},
      {"measurement": "TGI", "setting": "[6]", "value": "> 100", "unit": "µM"},
      {"measurement": "TGI", "setting": "[38]", "value": "> 100", "unit": "µM"},
      {"measurement": "TGI", "setting": "[7]", "value": "> 100", "unit": "µM"},
      {"measurement": "TGI", "setting": "[8]", "value": "> 100", "unit": "µM"},
      {"measurement": "TGI", "setting": "[39]", "value": "> 100", "unit": "µM"},
      {"measurement": "TGI", "setting": "[40]", "value": "> 100", "unit": "µM"},
      {"measurement": "TGI", "setting": "[41]", "value": "> 100", "unit": "µM"},
      {"measurement": "TGI", "setting": "[42]", "value": "> 100", "unit": "µM"},
      {"measurement": "TGI", "setting": "[9]", "value": "> 100", "unit": "µM"},
      {"measurement": "TGI", "setting": "[10]", "value": "> 100", "unit": "µM"},
      {"measurement": "TGI", "setting": "[11]", "value": "> 100", "unit": "µM"},
      {"measurement": "TGI", "setting": "[12]", "value": "> 100", "unit": "µM"},
      {"measurement": "TGI", "setting": "[13]", "value": "> 100", "unit": "µM"},
      {"measurement": "TGI", "setting": "[14]", "value": "> 100", "unit": "µM"},
      {"measurement": "TGI", "setting": "[43]", "value": "> 100", "unit": "µM"},
      {"measurement": "TGI", "setting": "[44]", "value": "> 100", "unit": "µM"},
      {"measurement": "TGI", "setting": "[15]", "value": "> 100", "unit": "µM"},
      {"measurement": "TGI", "setting": "[16]", "value": 74.8, "unit": "µM"},
      {"measurement": "TGI", "setting": "[17]", "value": "> 100", "unit": "µM"},
      {"measurement": "TGI", "setting": "[45]", "value": "> 100", "unit": "µM"},
      {"measurement": "TGI", "setting": "[19]", "value": "> 100", "unit": "µM"},
      {"measurement": "TGI", "setting": "[46]", "value": "> 100", "unit": "µM"},
      {"measurement": "TGI", "setting": "[47]", "value": "> 100", "unit": "µM"},
      {"measurement": "TGI", "setting": "[48]", "value": "> 100", "unit": "µM"},
      {"measurement": "TGI", "setting": "[49]", "value": "> 100", "unit": "µM"},
      {"measurement": "TGI", "setting": "[20]", "value": "> 100", "unit": "µM"},
      {"measurement": "TGI", "setting": "[50]", "value": "> 100", "unit": "µM"},
      {"measurement": "TGI", "setting": "[51]", "value": "> 100", "unit": "µM"},
      {"measurement": "TGI", "setting": "[23]", "value": "> 100", "unit": "µM"},
      {"measurement": "TGI", "setting": "[24]", "value": "> 100", "unit": "µM"},
      {"measurement": "TGI", "setting": "[25]", "value": "> 100", "unit": "µM"},
      {"measurement": "TGI", "setting": "[26]", "value": "> 100", "unit": "µM"},
      {"measurement": "TGI", "setting": "[52]", "value": "> 100", "unit": "µM"},
      {"measurement": "TGI", "setting": "[53]", "value": "> 100", "unit": "µM"},
      {"measurement": "TGI", "setting": "[27]", "value": "> 100", "unit": "µM"},
      {"measurement": "TGI", "setting": "[28]", "value": "> 100", "unit": "µM"},
      {"measurement": "TGI", "setting": "[30]", "value": "> 100", "unit": "µM"},
      {"measurement": "TGI", "setting": "[31]", "value": "> 100", "unit": "µM"},
      {"measurement": "TGI", "setting": "[32]", "value": "> 100", "unit": "µM"},
      {"measurement": "TGI", "setting": "[54]", "value": "> 100", "unit": "µM"}
    ]}
  ]
}
